This note sets out measurements from patent publication US20060189683A1, “Parenteral formulation of mycophenolic acid, a salt or prodrug thereof” (priority 2003, published 2006).

This data set can be described thus: Plasma levels of MPA after intravenous continuous infusion in stable renal transplant patients. Type of data set: in vivo, human. The following applies: 12 stable renal transplant patients. Here is the method:
12 ml of the solution of example 2 is given to 12 stable renal transplant patients as an intravenous continuous infusion into an arm vein over 30 min with a constant infusion rate of 0.4 ml/min.
Blood samples are taken for 36 h after dosing at the following time points: 0, 10 min, 20 min, 30 min, 45 min, 1.0 h, 1.5 h, 2.0 h, 4.0 h, 8.0 h, 12.0 h, 24.0 h, 36.0 h from the onset of infusion.

For `COc1c(C)c2c(c(O)c1C/C=C(\C)CCC(=O)O)C(=O)OC2` [MPA, Mycophenolic acid], the “interpatient variability for AUC0-t” value (12 ml of solution of example 2, i.v. infusion over 30 min) is on record as “less than 25%”. For the same molecule, the half-life (human, iv, 12 ml of the solution of example 2, 12 ml of solution of example 2, i.v. infusion over 30 min, read-out: Mean t1/2 (converted)) was 9.68 h. For the same molecule, the AUC(0-t) (human, iv, 12 ml of the solution of example 2, 12 ml of solution of example 2, i.v. infusion over 30 min, sampling for 36 h, read-out: Mean MPA AUC0-t) was determined as 42100 ng·h/mL.
